The values that follow come from patent publication US8933015B2, “Macrocyclic inhibitors of flaviviridae viruses” (Gilead Sciences, Inc., priority 2010, dated 2015).

Read-outs that look alike come from different tables or passages of the source.

For this data set the following is noted: rcm bond, 22-membered ring, Hoveyda-Grubbs II, DCE.

As for `CCO[C@@H]1CC/C=C/c2cccc(c2)COC(=O)[C@@H]2CCCN(N2)C(=O)[C@H](Cc2cccc(O[Si](C)(C)C(C)(C)C)c2)NC(=O)[C@H](C(C)C)NC(=O)[C@@H]1C`, the ring closure, isolated yield (from C=CCC[C@@H](OCC)[C@@H](C)C(=O)N[C@H](C(=O)N[C@@H](Cc1cccc(O[Si](C)(C)C(C)(C)C)c1)C(=O)N1CCC[C@@H](C(=O)OCc2cccc(C=C)c2)N1)C(C)C, 2.53 mM, 83.0 °C, 1.5 h) stood at 66%. `CO[C@@H]1CC/C=C/c2cccc(c2)[C@@H](C)OC(=O)[C@@H]2CCCN(N2)C(=O)[C@H](Cc2cccc(O[Si](C)(C)C(C)(C)C)c2)NC(=O)[C@H](C(C)C)NC(=O)C1` yielded a ring closure, isolated yield (from C=CCC[C@H](CC(=O)N[C@H](C(=O)N[C@@H](Cc1cccc(O[Si](C)(C)C(C)(C)C)c1)C(=O)N1CCC[C@@H](C(=O)O[C@H](C)c2cccc(C=C)c2)N1)C(C)C)OC, 2.63 mM, 80.0 °C, 1.5 h) of 46%. The compound `CO[C@@H]1CCC=Cc2cccc(c2)[C@@H](C)OC(=O)[C@@H]2CCCN(N2)C(=O)[C@H](Cc2cccc(O[Si](C)(C)C(C)(C)C)c2)NC(=O)[C@H](C(C)C)NC(=O)[C@@H]1C` registered a ring closure, isolated yield (from C=CCC[C@@H](OC)[C@@H](C)C(=O)N[C@H](C(=O)N[C@@H](Cc1cccc(O[Si](C)(C)C(C)(C)C)c1)C(=O)N1CCC[C@@H](C(=O)O[C@H](C)c2cccc(C=C)c2)N1)C(C)C, 2.68 mM, 83.0 °C, 3.0 h) of 70%.
